Experimental data from patent US7691572B2, “Method and kit for detecting resistance to antiviral drugs” (priority 1998, dated 2010).
Read-outs that look alike come from different tables or passages of the source.

Columns and labels:
Type in all cases: biochemical
[1] = system: HIV-1 reverse transcriptase; assay: Amp-RT assay, inhibition by 3TC-TP, reference viruses
Text: The phenotypic assay used in this example was based on the analysis of the susceptibility of HIV-1 reverse transcriptase activity from plasma to inhibition by 3TC-TP.
The assay detects reverse transcriptase activity by using a nonretroviral heteropolymeric RNA template derived from the encephalomyocarditis virus (EMCV) genome, and a complementary EMCV-specific DNA oligoprimer. The RT-generated EMCV cDNA is detected by PCR amplification and internal oligoprobing of the PCR product with an EMCV-specific probe.
Amp-RT detects reverse transcriptase activity by using a heterologous RNA template derived from the encephalomyocarditis virus (EMCV), a complementary DNA oligoprimer, and PCR amplification of reverse transcriptase-generated EMCV cDNA. […] To determine the susceptibility of the reverse transcriptase to 3TC-TP, an additional Amp-RT reaction was made in the presence of 3TC-TP, with concentrations of 3TC-TP ranging from 0.1 to 10 μM. […] PCR amplification of reverse transcriptase products was made as follows after the addition of 200 μM of each dNTP. A volume of 50 μl of PCR buffer containing 2.5 units of Taq polymerase, 100 ng of the sense primer EMCF1, and 200 μM of each dNTP was added to the reverse transcriptase mixture.
(§1) Wild type HIV-1SUM9, and multiple dideoxy nucleoside-resistant HIV-1SUM8 (Q151M mutation), HIV-1SUM12 (F77L/F116Y/Q151M) and HIV-1SUM13 (A62V/V751/F77L/F116Y/Q151M) MICs were provided by Dr. Mitsuya as described by Shirasaka et al., Proc. Natl. Acad. Sci. USA 92: 2398-2402 (1995). The synthesis and preparation of 3TC-TP were carried out as described by Schinazi et al., Antimicrob. Agents Chemother. 36: 2423-2431 (1992). The crude 3TC-5-TP was purified by FPLC using a HiLoad 26/10Q Sepharose Fast Flow™ Pharmacia chromatography column (Pharmacia, Piscataway, N.J.) and gradient of TEAE buffer (pH 7.0). The compound was characterized by UV spectroscopy, proton and phosphorous NMR, mass spectroscopy and HPLC.
Inhibition of reverse transcriptase by 3TC-TP results from the ability of 3TC-TP to act as a competitive inhibitor for 2′-deoxycytidine-5′-triphosphate (dCTP) and chain terminator as described by Arts and Wainberg, Antimicrob. Agents Chemother. 40: 527-540 (1996). To determine the optimal ratio of 3TC-TP and dCTP needed to inhibit wild type HIV-1 reverse transcriptase, but not 3TC-resistant reverse transcriptase, reverse transcriptase were tested from a wild type (xxBRUpitt) and a 3TC-resistant (M184Vpitt) HIV-1 in the presence of increasing concentrations of 3TC-TP (from 0.1 to 10 μM) and a fixed concentration of dCTP (5 μM).

[2] = target: T1, recombinant p66/p51 HIV-1 reverse transcriptase (Human immunodeficiency virus type 1 group M subtype B, UniProt P04585); assay: 3HdCTP incorporation assay with recombinant RT; conditions: read-out: concentration resulting in 50% inhibition of incorporation of 3HdCTP; (rI)n-dC12-18 template primer
T1 construct: recombinant p66/p51 HIV-1 reverse transcriptase; purchased Biotechnology General, Rehovot, Israel
Protocol: as §1

HIV-1 RT = conditions: for inhibition of RT activity / RT activity inhibition / Phenotype / % inhibition: 1 μM AZT-TP
Text: Four groups of archived HIV-1 specimens with known genotypes were selected for assay validation. These included WT, MNR, MNR carrying unrelated resistance mutations, and non-MNR specimens carrying classical AZT resistance mutations (Schmit et al., “Multiple drug resistance to nucleoside analogues and nonnucleoside reverse transcriptase inhibitors in an efficiently replicating human immunodeficiency virus type 1 patient strain,” J. Infect. Dis. 174: 962-968 (1996); Winters et al., “A 6-base pair insert in the reverse transcriptase gene of human immunodeficiency virus type 1 confers resistance to multiple nucleoside inhibitors,” J. Clin. Invest. 102: 1769-1775 (1998); Adje et al., “High prevalence of genotypic and phenotypic HIV-1 drug-resistant strains among patients receiving antiretroviral therapy in Abidjan, Cote d'Ivoire,” J. Acquired Immune Deficiency Syndromes 26: 501-506 (2001); Weinstock et al., “Prevalence of mutations associated with reduced antiretroviral drug susceptibility among human immunodeficiency virus type 1 seroconverters in the United States, 1993-1998,” J. Infect. Dis. 182: 330-333 (2000)). Forty-four samples were selected which comprised 7 viral stocks and 37 plasma samples obtained from 34 HIV-1-infected persons.

[3] = 5 μM 3TC-TP, wild type HIV-1, 10^−6 units of RT activity
[4] = specimen no. 40 (T215Y and T69S-EA insertions)

Nc1ccn([C@@H]2CS[C@H](COP(=O)(O)OP(=O)(O)OP(=O)(O)O)O2)c(=O)n1 [3TC-TP, 3TC-5′-triphosphate]
inhibition of reverse transcriptase ([1]; 5 μM 3TC-TP, 3TC-resistant HIV-1 (M184Vpitt), high or low input of RT): No significant inhibition
inhibition of RT activity ([1]; 5 μM 3TC-TP, mixture with 25% 3TC-resistant (M184Vpitt) virus in wild type xxBRUpitt): 87%
inhibition of RT activity ([1]; 5 μM 3TC-TP, mixture with 75% 3TC-resistant (M184Vpitt) virus in wild type xxBRUpitt): 26%
drop in Amp-RT virus load [1, 3]: 2.35 log10
residual reverse transcriptase activity (of control without 3TC-TP) [1, 3]: 0.4%
inhibition of reverse transcriptase ([1]; 5 μM 3TC-TP, wild type xxBRUpitt, 10^−7 and 10^−8 units of RT activity): complete inhibition
IC90 relative to reference viruses ([1]; HIV-1SUM8 (Q151M)): approximately two-fold higher
increase in IC50 compared to wild type virus ([1]; HIV-1SUM12, three MD resistance mutations (F77L/F116Y/Q151M)): six-
increase in IC50 compared to wild type virus ([1]; HIV-1SUM13, all five MD resistance mutations): eight-fold
IC50 [2]: 1300 nM

Cc1cn([C@H]2C[C@H](N=[N+]=[N-])[C@@H](COP(=O)(O)OP(=O)(O)OP(=O)(O)O)O2)c(=O)[nH]c1=O [AZT-TP, AZT-triphosphate]
inhibition of RT activity (HIV-1 RT; 9 specimens containing classical AZT-resistant mutations): 87%
RT activity inhibition (HIV-1 RT; 23 specimens with MNR genotypes): 0-62%
RT activity inhibition (HIV-1 RT; HIV-1 RTs that had more MNR-related mutations): 0-16%
inhibition of RT activity (HIV-1 RT; all 12 specimens with WT genotype): 93%
Phenotype (HIV-1 RT; specimen 12): S
% inhibition (HIV-1 RT; specimen 12, WT): 100%
Phenotype (HIV-1 RT; specimen 13): R
% inhibition (HIV-1 RT; specimen 13, S68G, Q151M): 40%
Phenotype (HIV-1 RT; specimen 14): R
% inhibition (HIV-1 RT; specimen 14, A62A/V, S68G, V75I, F77L, F116Y, Q151M): 6%
Phenotype (HIV-1 RT; specimen 15): R
% inhibition (HIV-1 RT; specimen 15, S68G, V75I, F77L, K103N, F116Y, Q151M, M184V): 0%
Phenotype (HIV-1 RT; specimen 16): R
% inhibition (HIV-1 RT; specimen 16, Q151Q/M): 38%
% inhibition (HIV-1 RT; specimen 17, Q151M): 23%
% inhibition (HIV-1 RT; specimen 18, Q151M): 57%
Phenotype (HIV-1 RT; specimen 26): R
% inhibition (HIV-1 RT; specimen 26, A62V, V75T, Q151M, M184I/M): 11%
% inhibition (HIV-1 RT; specimen 27, V75I, F77L, F116Y, Q151M): 0%
% inhibition (HIV-1 RT; specimen 28, V75I, F77L, F116Y, Q151M): 8%
Phenotype (HIV-1 RT; specimen 29): R
% inhibition (HIV-1 RT; specimen 29, A62V, V75I, F77L, F116Y, Q151M, M184V): 0%
Phenotype (HIV-1 RT; specimen 30): R
% inhibition (HIV-1 RT; specimen 30, K65R, K70R, V75I, F77L, F116Y, Q151M): 13%
Phenotype (HIV-1 RT; specimen 31): R
% inhibition (HIV-1 RT; specimen 31, D67N, Q151M, M184V): 17%
Phenotype (HIV-1 RT; specimen 32): R
% inhibition (HIV-1 RT; specimen 32, V75I, F77L, F116Y, Q151M, M184V): 26%
Phenotype (HIV-1 RT; specimen 35): R
% inhibition (HIV-1 RT; specimen 35, F116Y, Q151M, T215Y, V35I, I135T): 62%
Phenotype (HIV-1 RT; specimen 36): S
% inhibition (HIV-1 RT; specimen 36, D67N, L210W, L214F, T215Y): 95.6%
Phenotype (HIV-1 RT; specimen 37): S
% inhibition (HIV-1 RT; specimen 37, A62V, K70R, L74V, K103N, T215F): 92.6%
Phenotype (HIV-1 RT; specimen 38): S
Phenotype (HIV-1 RT; specimen 39): S
% inhibition (HIV-1 RT; specimen 39, M41L, M184V, L214F, T215Y): 89.1%
Phenotype (HIV-1 RT; specimen 44): S
Phenotype (HIV-1 RT; specimens 1-11, WT): S
% inhibition (HIV-1 RT; specimens 1-11, recent seroconverters, WT): 93-100%
Phenotype (HIV-1 RT; specimens 17, 18): R
Phenotype (HIV-1 RT; specimens 19-21): R
% inhibition (HIV-1 RT; specimens 19-21, A62V, V75I, F77L, F116Y, Q151M): 4-16%
Phenotype (HIV-1 RT; specimens 22-25): R
% inhibition (HIV-1 RT; specimens 22-25, A62V, S68G, V75I, F77L, F116Y, Q151M): 0%
Phenotype (HIV-1 RT; specimens 27-28): R
Phenotype (HIV-1 RT; specimens 33, 34): R
Phenotype (HIV-1 RT; specimens 40-43): S
% inhibition (HIV-1 RT; specimens 40-43, T215Y, T69S-insertions EA/SS/SG): 87-97%
IC50 compared to reference WT HIV-1 isolates (HIV-1 RT; plasma specimen no. 25 (A62V, S68G, V75I, F77L, F116Y, Q151M)): 44 fold
IC50 (HIV-1 RT; [4]): 400 nM
IC90 (HIV-1 RT; [4]): 1000 nM
